Columns and labels:
[1] = tested on: Puccinia recondita f. Sp. Tritici; experiment: Fungicidal activity against Puccinia recondita f. sp. tritici / wheat / leaf disc curative (brown rust); type: in vivo; details: foliar, 24 h, 200 ppm in the applied formulation, wheat leaf segments, curative (applied 1 day after inoculation), compared to untreated control leaf disks, read-out: disease control
How it was run: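 % disease control vs untreated, scored 6–8 d post-application. Wheat cv. Kanzler segments, spore-inoculated, dark 19° C/75% RH; formulated cpd applied 1 d post-inoc; then 19° C, 75% RH, 12 h L/12 h D.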

[2] = tested on: Glomerella lagenarium (Colletotrichum lagenarium); experiment: Fungicidal activity against Glomerella lagenarium (Colletotrichum lagenarium) liquid culture / cucumber / preventative (anthracnose); type: cell-based; details: Colletotrichum orbiculare; 20 ppm in the applied formulation; liquid culture (PDB), growth inhibition measured photometrically after 3 to 4 days; compared to untreated control; read-out: disease control
How it was run: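 Photometric read-out of fungal growth after 2–7 days, expressed as percent antifungal activity versus untreated check. Cryo-stored conidia in PDB; compound at 20 ppm; dark, 24 °C, 96% RH.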

Phakopsora Pachyrhizi = experiment: Fungicidal activity against Phakopsora pachyrhizi / soybean / leaf disc preventative (Asian soybean rust); type: in vivo; details: foliar, 200 ppm in the applied formulation, soybean leaf disks, compared to untreated control leaf disks, read-out: disease control
How it was run: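 Preventative soybean leaf-disc test: discs on water agar sprayed with diluted formulated compound, inoculated one day later with spores on the lower surface. Held 24–36 h dark at 20°C, 75% rh, then 12 h light/day; percent disease control versus untreated discs scored 12–14 days after application.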

[3] = tested on: Puccinia recondita f. Sp. Tritici; experiment: Fungicidal activity against Puccinia recondita f. sp. tritici / wheat / leaf disc preventative (brown rust); type: in vivo; details: foliar, 200 ppm in the applied formulation, wheat leaf segments, preventative, compared to untreated control leaf disks, read-out: disease control
How it was run: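 Preventative leaf-segment test, wheat cv. Kanzler on water agar. Spray compound at 200 ppm, inoculate with spores 1 day later; 19° C., 75% rh, 12/12 h light. Read-out: % disease control vs untreated, 7 to 9 days after application.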

O=C(Cc1cccnc1)N(Cc1ccc(-c2noc(C(F)(F)F)n2)cc1)C1CC1 [Compound 1.102, N-cyclopropyl-2-(3-pyridyl)-N-[[4-[5-(trifluoromethyl)-1,2,4-oxadiazol-3-yl]phenyl]methyl]-acetamide]
≥ 80%: pest or weed control at 200 ppm [1] | inhibition of growth at 20 ppm [2] | pest or weed control at 200 ppm (Phakopsora Pachyrhizi) | pest or weed control at 200 ppm [3]

O=C(C1CC1(F)F)N(Cc1ccc(-c2noc(C(F)(F)F)n2)cc1)C1COC1 (centres unmarked) [Compound 1.739, 2,2-difluoro-N-(oxetan-3-yl)-N-[[4-[5-(trifluoromethyl)-1,2,4-oxadiazol-3-yl]phenyl]methyl]-cyclopropane-carboxamide]
≥ 80%: pest or weed control at 200 ppm [1] | inhibition of growth at 20 ppm [2] | pest or weed control at 200 ppm (Phakopsora Pachyrhizi) | pest or weed control at 200 ppm [3]

CCCC(=O)N(CCOC)Cc1ccc(-c2noc(C(F)(F)F)n2)cc1 [Compound 1.329, N-(2-methoxyethyl)-N-[[4-[5-(trifluoromethyl)-1,2,4-oxadiazol-3-yl]phenyl]methyl]-butanamide]
≥ 80%: pest or weed control at 200 ppm [1] | inhibition of growth at 20 ppm [2] | pest or weed control at 200 ppm (Phakopsora Pachyrhizi) | pest or weed control at 200 ppm [3]

CON(Cc1ccc(-c2noc(C(F)(F)F)n2)cc1)C(=O)N(C)C1COC1 [Compound 3.59, 1-methoxy-3-methyl-3-(oxetan-3-yl)-1-[[4-[5-(trifluoromethyl)-1,2,4-oxadiazol-3-yl]phenyl]methyl]urea]
≥ 80%: pest or weed control at 200 ppm [1] | inhibition of growth at 20 ppm [2] | pest or weed control at 200 ppm (Phakopsora Pachyrhizi) | pest or weed control at 200 ppm [3]

CCON(Cc1ccc(-c2noc(C(F)(F)F)n2)cc1)C(=O)C1CC1(F)F (centres unmarked) [Compound 1.615, N-ethoxy-2,2-difluoro-N-[[4-[5-(trifluoromethyl)-1,2,4-oxadiazol-3-yl]phenyl]methyl]-cyclopropane-carboxamide]
≥ 80%: pest or weed control at 200 ppm [1] | inhibition of growth at 20 ppm [2] | pest or weed control at 200 ppm (Phakopsora Pachyrhizi) | pest or weed control at 200 ppm [3]

COC(C)C(=O)N(O)Cc1ccc(-c2noc(C(F)(F)F)n2)cc1 (centres unmarked) [Compound 1.772, N-hydroxy-2-methoxy-N-[[4-[5-(trifluoromethyl)-1,2,4-oxadiazol-3-yl]phenyl]methyl]-propanamide]
≥ 80%: pest or weed control at 200 ppm [1] | inhibition of growth at 20 ppm [2] | pest or weed control at 200 ppm (Phakopsora Pachyrhizi) | pest or weed control at 200 ppm [3]

CC(=O)ON(Cc1ccc(-c2noc(C(F)(F)F)n2)cc1)C(C)=O [Compound 1.776, (acetyl-[[4-[5-(trifluoromethyl)-1,2,4-oxadiazol-3-yl]phenyl]methyl]-amino] acetate]
≥ 80%: pest or weed control at 200 ppm [1] | inhibition of growth at 20 ppm [2] | pest or weed control at 200 ppm (Phakopsora Pachyrhizi) | pest or weed control at 200 ppm [3]

CON(Cc1ccc(-c2noc(C(F)(F)F)n2)cc1)C(=O)NC1CCC1 [Compound 3.16, 3-cyclobutyl-1-methoxy-1-[[4-[5-(trifluoromethyl)-1,2,4-oxadiazol-3-yl]phenyl]methyl]urea]
≥ 80%: pest or weed control at 200 ppm [1] | inhibition of growth at 20 ppm [2] | pest or weed control at 200 ppm (Phakopsora Pachyrhizi) | pest or weed control at 200 ppm [3]

CC(=O)CC(C)C(=O)N(Cc1ccc(-c2noc(C(F)(F)F)n2)cc1)C1CC1 (centres unmarked) [Compound 1.95, N-cyclopropyl-2-methyl-4-oxo-N-[[4-[5-(trifluoromethyl)-1,2,4-oxadiazol-3-yl]phenyl]methyl]-pentanamide]
≥ 80%: pest or weed control at 200 ppm [1] | inhibition of growth at 20 ppm [2] | pest or weed control at 200 ppm (Phakopsora Pachyrhizi) | pest or weed control at 200 ppm [3]

CC(C)(C)C(=O)N(Cc1ccc(-c2noc(C(F)(F)F)n2)cc1)C1CC1 [Compound 1.117, N-cyclopropyl-2,2-dimethyl-N-[[4-[5-(trifluoromethyl)-1,2,4-oxadiazol-3-yl]phenyl]methyl]-propanamide]
≥ 80%: pest or weed control at 200 ppm [1] | inhibition of growth at 20 ppm [2] | pest or weed control at 200 ppm (Phakopsora Pachyrhizi) | pest or weed control at 200 ppm [3]

CN(Cc1ccc(-c2noc(C(F)(F)F)n2)cc1)C(=O)C1CC1F (centres unmarked) [Compound 1.529, 2-fluoro-N-methyl-N-[[4-[5-(trifluoromethyl)-1,2,4-oxadiazol-3-yl]phenyl]methyl]-cyclopropane-carboxamide]
≥ 80%: pest or weed control at 200 ppm [1] | inhibition of growth at 20 ppm [2] | pest or weed control at 200 ppm (Phakopsora Pachyrhizi) | pest or weed control at 200 ppm [3]

CC=CCC(=O)N(Cc1ccc(-c2noc(C(F)(F)F)n2)cc1)C1CC1 [Compound 1.114, N-cyclopropyl-N-[[4-[5-(trifluoromethyl)-1,2,4-oxadiazol-3-yl]phenyl]methyl]pent-3-enamide]
≥ 80%: pest or weed control at 200 ppm [1] | inhibition of growth at 20 ppm [2] | pest or weed control at 200 ppm (Phakopsora Pachyrhizi) | pest or weed control at 200 ppm [3]

CON(Cc1ccc(-c2noc(C(F)(F)F)n2)cc1)C(=O)C(C)(C)CCl [Compound 1.35, 3-chloro-N-methoxy-2,2-dimethyl-N-[[4-[5-(trifluoromethyl)-1,2,4-oxadiazol-3-yl]phenyl]methyl]-propanamide]
≥ 80%: pest or weed control at 200 ppm [1] | inhibition of growth at 20 ppm [2] | pest or weed control at 200 ppm (Phakopsora Pachyrhizi) | pest or weed control at 200 ppm [3]

CON(Cc1ccc(-c2noc(C(F)(F)F)n2)cc1)C(=O)C1(C)COC1 [Compound 1.50, N-methoxy-3-methyl-N-[[4-[5-(trifluoromethyl)-1,2,4-oxadiazol-3-yl]phenyl]methyl]-oxetane-3-carboxamide]
≥ 80%: pest or weed control at 200 ppm [1] | inhibition of growth at 20 ppm [2] | pest or weed control at 200 ppm (Phakopsora Pachyrhizi) | pest or weed control at 200 ppm [3]

CCC(C)NC(=O)N(Cc1ccc(-c2noc(C(F)(F)F)n2)cc1)OC (centres unmarked) [Compound 3.9, 1-methoxy-3-sec-butyl-1-[[4-[5-(trifluoromethyl)-1,2,4-oxadiazol-3-yl]phenyl]methyl]urea]
≥ 80%: pest or weed control at 200 ppm [1] | inhibition of growth at 20 ppm [2] | pest or weed control at 200 ppm (Phakopsora Pachyrhizi) | pest or weed control at 200 ppm [3]

C#CCN(Cc1ccc(-c2noc(C(F)(F)F)n2)cc1)C(=O)C1CC1C (centres unmarked) [Compound 1.181, 2-methyl-N-prop-2-ynyl-N-[[4-[5-(trifluoromethyl)-1,2,4-oxadiazol-3-yl]phenyl]methyl]-cyclopropane-carboxamide]
≥ 80%: pest or weed control at 200 ppm [1] | inhibition of growth at 20 ppm [2] | pest or weed control at 200 ppm (Phakopsora Pachyrhizi) | pest or weed control at 200 ppm [3]

CCON(Cc1ccc(-c2noc(C(F)(F)F)n2)cc1)C(=O)N(C)C [Compound 3.28, 1-ethoxy-3,3-dimethyl-1-[[4-[5-(trifluoromethyl)-1,2,4-oxadiazol-3-yl]phenyl]methyl]urea]
≥ 80%: pest or weed control at 200 ppm [1] | inhibition of growth at 20 ppm [2] | pest or weed control at 200 ppm (Phakopsora Pachyrhizi) | pest or weed control at 200 ppm [3]

CCCC(=O)N(C)Cc1ccc(-c2noc(C(F)(F)F)n2)cc1 [Compound 1.524, N-methyl-N-[[4-[5-(trifluoromethyl)-1,2,4-oxadiazol-3-yl]phenyl]methyl]-butanamide]
≥ 80%: pest or weed control at 200 ppm [1] | inhibition of growth at 20 ppm [2] | pest or weed control at 200 ppm (Phakopsora Pachyrhizi) | pest or weed control at 200 ppm [3]

CC(C)N(Cc1ccc(-c2noc(C(F)(F)F)n2)cc1)C(=O)CC#N [Compound 1.683, 2-cyano-N-isopropyl-N-[[4-[5-(trifluoromethyl)-1,2,4-oxadiazol-3-yl]phenyl]methyl]-acetamide]
≥ 80%: pest or weed control at 200 ppm [1] | inhibition of growth at 20 ppm [2] | pest or weed control at 200 ppm (Phakopsora Pachyrhizi) | pest or weed control at 200 ppm [3]

CCC(C)N(Cc1ccc(-c2noc(C(F)(F)F)n2)cc1)C(=O)C1CC1F (centres unmarked) [Compound 1.401, 2-fluoro-N-sec-butyl-N-[[4-[5-(trifluoromethyl)-1,2,4-oxadiazol-3-yl]phenyl]methyl]-cyclopropane-carboxamide]
≥ 80%: pest or weed control at 200 ppm [1] | inhibition of growth at 20 ppm [2] | pest or weed control at 200 ppm (Phakopsora Pachyrhizi) | pest or weed control at 200 ppm [3]

CN(C(=O)C1CC1)C(C#N)c1ccc(-c2noc(C(F)(F)F)n2)cc1 (centres unmarked) [Compound 1.612, N-[cyano-[4-[5-(trifluoromethyl)-1,2,4-oxadiazol-3-yl]phenyl]methyl)-N-methyl-cyclopropane-carboxamide]
≥ 80%: pest or weed control at 200 ppm [1] | inhibition of growth at 20 ppm [2] | pest or weed control at 200 ppm (Phakopsora Pachyrhizi) | pest or weed control at 200 ppm [3]

COCCCC(=O)N(O)Cc1ccc(-c2noc(C(F)(F)F)n2)cc1 [Compound 1.769, N-hydroxy-4-methoxy-N-[[4-[5-(trifluoromethyl)-1,2,4-oxadiazol-3-yl]phenyl]methyl]-butanamide]
≥ 80%: pest or weed control at 200 ppm [1] | inhibition of growth at 20 ppm [2] | pest or weed control at 200 ppm (Phakopsora Pachyrhizi) | pest or weed control at 200 ppm [3]

C#CCN(Cc1ccc(-c2noc(C(F)(F)F)n2)cc1)C(=O)C1CC1 [Compound 1.201, N-prop-2-ynyl-N-[[4-[5-(trifluoromethyl)-1,2,4-oxadiazol-3-yl]phenyl]methyl]-cyclopropane-carboxamide]
≥ 80%: pest or weed control at 200 ppm [1] | inhibition of growth at 20 ppm [2] | pest or weed control at 200 ppm (Phakopsora Pachyrhizi) | pest or weed control at 200 ppm [3]

Reference: patent US11180462B2, “Microbiocidal oxadiazole derivatives” (SYNGENTA PARTICIPATIONS AG, priority 2015, dated 2021)
